Legend:
Assay in all cases: growth AUC relative to DMSO control (fraction); higher = more growth (less inhibition)
Conditions in all cases: 24 h
Eubacterium rectale = test system: Eubacterium rectale
Procedure: (§1)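 Validation screen: 11 independently purchased pesticides tested on 8 gut bacterial strains at 2.5–320 µM in mGAM, anaerobic, 37 °C, 24 h. Growth AUC normalised to DMSO controls, mean of 3 independent experiments.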

Escherichia coli IAI1 = test system: Escherichia coli IAI1
Procedure: as §1

[1] = test system: Parabacteroides distasonis
Procedure: as §1

Streptococcus salivarius = test system: Streptococcus salivarius
Procedure: as §1

Lactobacillus gasseri = test system: Lactobacillus gasseri
Procedure: as §1

Bacteroides uniformis = test system: Bacteroides uniformis
Procedure: as §1

Clostridium difficile = test system: Clostridium difficile
Procedure: as §1

Roseburia intestinalis = test system: Roseburia intestinalis
Procedure: as §1

CCC(C)[C@H]1O[C@]2(C=C[C@@H]1C)C[C@@H]1C[C@@H](C/C=C(\C)[C@@H](O[C@H]3C[C@H](OC)[C@@H](O[C@H]4C[C@H](OC)[C@@H](O)[C@H](C)O4)[C@H](C)O3)[C@@H](C)/C=C/C=C3\CO[C@@H]4[C@H](O)C(C)=C[C@@H](C(=O)O1)[C@]34O)O2.CO[C@H]1C[C@H](O[C@H]2[C@H](C)O[C@@H](O[C@@H]3/C(C)=C/C[C@@H]4C[C@@H](C[C@]5(C=C[C@H](C)[C@@H](C(C)C)O5)O4)OC(=O)[C@@H]4C=C(C)[C@@H](O)[C@H]5OC/C(=C\C=C\[C@@H]3C)[C@]54O)C[C@@H]2OC)O[C@@H](C)[C@@H]1O (stereo not given in full) [ABAMECTIN]
growth AUC
Conditions	Bacteroides uniformis	Clostridium difficile	Escherichia coli IAI1	Eubacterium rectale	Lactobacillus gasseri	Roseburia intestinalis	Streptococcus salivarius	[1]
2.5 µM	0.975	1.02	1.01	1.29	1.04	0.865	1.04	0.985
5 µM	0.996	0.979	0.978	1.17	1.07	0.871	0.973	0.918
10 µM	0.968	0.968	1.01	1.05	1.03	0.564	0.983	0.409
20 µM	0.996	0.986	0.957	0.881	0.983	0.21	0.876	0.057
40 µM	0.974	0.966	1.01	0.774	0.952	0.121	0.894	0.0234
80 µM	0.971	0.887	1	0.892	1.02	0.102	0.887	0.0192
160 µM	0.99	0.885	0.974	0.999	0.889	0.107	1.01	0.0484

Cc1cc(C(C#N)c2ccc(Cl)cc2)c(Cl)cc1NC(=O)c1cc(I)cc(I)c1O (stereo not given) [CLOSANTEL]
growth AUC
Conditions	Bacteroides uniformis	Clostridium difficile	Escherichia coli IAI1	Eubacterium rectale	Lactobacillus gasseri	Roseburia intestinalis	Streptococcus salivarius	[1]
2.5 µM	1	0.0348	1.07	0.453	0.809	0.246	1.05	0.245
5 µM	0.973	0.0106	1.04	0.242	0.827	0.149	1.04	0.00935
10 µM	0.616	0.0157	1.03	0.0185	0.866	0.0586	1.09	0.00581
20 µM	0.609	0.0183	0.929	0.0129	0.848	0.0162	1.06	0.00682
40 µM	0.573	0.00635	0.904	0.00913	0.815	0.0268	1.04	0.0119
80 µM	0.575	0.0171	0.886	0.0119	0.836	0.0158	1.13	0.0133
160 µM	0.575	0.072	0.861	0.0223	0.81	0.0258	1.06	0.0101

CCCCOC(=O)[C@@H](C)Oc1ccc(Oc2ccc(C#N)cc2F)cc1 [CYHALOFOP-BUTYL]
growth AUC
Conditions	Bacteroides uniformis	Clostridium difficile	Escherichia coli IAI1	Eubacterium rectale	Lactobacillus gasseri	Roseburia intestinalis	Streptococcus salivarius	[1]
2.5 µM	1.01	1.02	1.01	1.11	1.05	1.01	1.07	1.04
5 µM	0.969	0.984	0.98	1.04	0.986	0.964	1.02	0.93
10 µM	0.994	0.98	0.975	1.05	0.986	1.02	0.957	0.859
20 µM	0.937	1.03	0.972	0.967	0.981	0.891	0.972	0.717
40 µM	0.971	1.02	0.996	1.02	0.956	0.981	0.981	0.643
80 µM	0.99	0.992	0.979	1.13	1.01	0.976	0.999	0.684
160 µM	0.968	1.01	0.992	1.18	0.969	0.998	1.01	0.588
320 µM	0.925	0.977	1	1.28	0.975	0.918	1.1	0.437

O=[N+]([O-])c1cc(C(F)(F)F)c(Cl)c([N+](=O)[O-])c1Nc1ncc(C(F)(F)F)cc1Cl [FLUAZINAM]
growth AUC
Conditions	Bacteroides uniformis	Clostridium difficile	Escherichia coli IAI1	Eubacterium rectale	Lactobacillus gasseri	Roseburia intestinalis	Streptococcus salivarius	[1]
2.5 µM	1.04	0.99	1.03	1.04	1.01	1.01	1.04	0.966
5 µM	1.02	0.995	1.01	0.887	0.968	1.08	1	0.859
10 µM	0.996	0.969	1.03	0.692	0.921	0.959	0.984	0.411
20 µM	0.807	0.909	0.912	0.227	0.844	0.879	0.815	0.0128
40 µM	0.593	0.0127	0.934	0.0306	0.847	0.584	0.992	0.0301

CCCC1COC(Cn2cncn2)(c2ccc(Cl)cc2Cl)O1 (stereo not given) [PROPICONAZOLE]
growth AUC
Conditions	Bacteroides uniformis	Clostridium difficile	Escherichia coli IAI1	Eubacterium rectale	Lactobacillus gasseri	Roseburia intestinalis	Streptococcus salivarius	[1]
2.5 µM	1.03	0.982	1	1.19	1.03	0.971	1.1	1.12
5 µM	0.99	1.01	0.993	0.951	0.968	0.925	1.04	1
10 µM	1.02	0.967	0.971	0.703	1.02	1.01	1.06	0.988
20 µM	0.97	1.03	0.981	0.475	0.96	0.894	0.994	0.874
40 µM	0.951	0.981	0.999	0.344	0.972	0.947	1.04	0.488
80 µM	0.915	0.979	0.975	0.0163	0.94	0.716	1.06	0.284
160 µM	0.831	0.885	0.996	0.0214	0.851	0.202	1.03	0.0246
320 µM	0.618	0.385	0.994	0.0204	0.832	0.0162	0.932	0.0187
